Experimental data as given in US12616705B2, “Use of cannabinoids in the treatment of Angelman syndrome” (JAZZ PHARMACEUTICALS RESEARCH UK LIMITED, priority 2016, dated 2026).

Experiments:
[1] = background statement; cited from earlier work
[2] = system: Heterozygous mice with maternal deficiency of Ube3A (Ube3am−/p+); assay: Tail suspension test (depressive-like behaviour) in a mouse model of Angelman syndrome; type: in vivo; conditions: AS mice, CBD 20 mg/kg i.p. daily, vs AS mice treated with vehicle; FIG. 4
Procedure: (§1) Heterozygous mice with maternal deficiency of Ube3A (Ube3am−/p+) and wild type (Ube3am+/p+) were purchased from The Jackson Laboratory (Jackson code: B6.12957-Ube3a tm1Alb/J) and maintained in a C57BL/6 background.
Drugs were dissolved in 1:1:18 ethanol:cremophor: 0.9% saline, for intraperitoneal (i.p.) administration. Drug treatment was performed daily for 35 days.
Tail suspension: The tail suspension test assesses depressive-like behaviour in mice. Mice were individually suspended by the tail on a horizontal bar (50 cm from floor) using adhesive tape placed approximately 4 cm from the tip of the tail. The duration of immobility was recorded in seconds over a period of 6 minutes by a time recorder. Immobility time was defined as the absence of escape-oriented behaviour.

[3] = system: Heterozygous mice with maternal deficiency of Ube3A (Ube3am−/p+); assay: Rotarod test (balance and motor coordination) in a mouse model of Angelman syndrome; type: in vivo; conditions: AS mice, CBD 20 mg/kg i.p. daily, chronic treatment (30 days), vs AS mice treated with vehicle; FIG. 2
Procedure: as §1
(§2) Drugs were dissolved in 1:1:18 ethanol:cremophor: 0.9% saline, for intraperitoneal (i.p.) administration. […]
Rotarod: The rotarod test assesses balance and motor coordination of mice. Mice have been measured for the time (in seconds) of equilibrium before falling on a rotary cylinder by a magnet that, activated from the fall of the mouse on the plate, allows to record the time of permanence on the cylinder. […] The animals were analysed by 2 separate tests at 1-h interval in the same day.

[4] = system: Heterozygous mice with maternal deficiency of Ube3A (Ube3am−/p+); assay: Clasping test (ataxia) in a mouse model of Angelman syndrome; type: in vivo; conditions: AS mice, CBD 20 mg/kg i.p. daily, chronic treatment (30 days), at 10 weeks of age, vs AS mice treated with vehicle; FIG. 1
Procedure: as §1, §2
Clasping: The clasping test assesses ataxia in mice. Mice were suspended by the base of the tail and their behaviours were recorded for 30 seconds. The time for which the mice clasped their hind limbs was recorded. The time was then scored as follows: 4, 15-30 s, 3, 10-15 s, 2, 5-10 s, 1, 0-5 s and 0, 0 s.

Structure (SMILES)	side effects [1]	duration of immobility time (tail suspension) [2]	latency to fall (rotarod) [3]	clasping duration [4]
Cc1c(C(=O)NN2CCCCC2)nn(-c2ccc(Cl)cc2Cl)c1-c1ccc(Cl)cc1 [rimonabant]	serious side effects which limit its use, such as suicide ideation			
C=C(C)[C@@H]1CCC(C)=C[C@H]1c1c(O)cc(CCCCC)cc1O [CBD, Cannabidiol]		significantly reduced the duration of immobility time	significantly reduced latency to fall	significantly reduced clasping duration
